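Cells were grown in 96-well plates and exposed to each compound for 48 hours at five concentrations; endpoints were interpolated linearly between bracketing concentrations, or set to the highest concentration if not reached. GI50 marks 50% less growth.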 The source made the active and inactive calls. Cut-off read from the data, not from the text of the source: active = GI50 up to about 1.1 µM and inactive = higher.
Columns and labels:
Assay in all cases: growth of human tumour cells (NCI), 48 h
[1] = test system: PC-3
[2] = test system: U-251
[3] = test system: A549
[4] = test system: Malme-3M
[5] = test system: UACC-257
[6] = test system: HCT-15
[7] = test system: SR
[8] = test system: HOP-92
[9] = test system: UACC-62
[10] = test system: A498
[11] = test system: K562
[12] = test system: IGROV-1
[13] = test system: LOX IMVI
[14] = test system: HOP-62
[15] = test system: CAKI-1
[16] = test system: RPMI-8226
[17] = test system: SF-539
[18] = test system: NCI-H460
[19] = test system: OVCAR-3
[20] = test system: MOLT-4
[21] = test system: SK-OV-3
[22] = test system: M14
[23] = test system: MDA-MB-435
[24] = test system: MDA-N
[25] = test system: HCC 2998
[26] = test system: Hs-578T
[27] = test system: ACHN
[28] = test system: MCF7
[29] = test system: CCRF-CEM
[30] = test system: EKVX
[31] = test system: KM12
[32] = test system: SF-295
[33] = test system: SK-MEL-2
[34] = test system: SK-MEL-5
[35] = test system: COLO 205
[36] = test system: OVCAR-5
[37] = test system: SF-268
[38] = test system: MDA-MB-231
[39] = test system: RXF 393
[40] = test system: SNB-19
[41] = test system: NCI-H226
[42] = test system: HT-29
[43] = test system: SW-620
[44] = test system: DU-145
[45] = test system: NCI/ADR-RES
[46] = test system: SNB-75
[47] = test system: SK-MEL-28
[48] = test system: TK-10
[49] = test system: UO-31
[50] = test system: OVCAR-4
[51] = test system: 786-0
[52] = test system: NCI-H23
[53] = test system: OVCAR-8
[54] = test system: SN12C
[55] = test system: T47D
[56] = test system: NCI-H522
[57] = test system: HCT-116
[58] = test system: HL-60

Measured: GI50

CCCCc1cc2c(cc1O)CCC1C2CC[C@@]2(C)C1CC[C@@H]2O (some centres undefined)
inactive: [1] 12.4 µM | [2] 19.4 µM | [3] 13.5 µM | [4] 20.7 µM | [5] 15.4 µM | [7] 21.4 µM | [8] 20 µM | [9] 11.6 µM | [10] 21.8 µM | [11] 9.38 µM | [12] 22 µM | [13] 16.6 µM | [14] 28.4 µM | [15] 16.6 µM | [16] 5.14 µM | [17] 26.2 µM | [18] 21.9 µM | [19] 13.7 µM | [20] 11.7 µM | [21] 16.3 µM | [22] 18.9 µM | [23] 16.9 µM | [24] 23.4 µM | [25] 19.9 µM | [26] 11.3 µM | [27] 16.2 µM | [28] 11.8 µM | [29] 21.5 µM | [30] 14.8 µM | [31] 12.3 µM | [32] 13.3 µM | [33] 18.4 µM | [34] 20.8 µM | [35] 24.7 µM | [36] 17.7 µM | [37] 29.6 µM | [38] 29.3 µM | [39] 2.89 µM | [40] 25.5 µM | [41] 16.9 µM | [42] 23.2 µM | [43] 20.2 µM | [44] 18.3 µM | [45] 18.7 µM | [46] 13 µM | [47] 23 µM | [48] 18.3 µM | [49] 14.5 µM | [50] 20.4 µM | [51] 22.8 µM | [52] 20.2 µM | [53] 15.3 µM | [54] 18.7 µM | [55] 8.97 µM | [56] 14 µM | [57] 14.3 µM
23.8 µM: [6]

CN(C)/C=N/n1c2ccccc2c2ccccc21
inactive: [1] > 100 µM | [2] > 100 µM | [3] > 100 µM | [4] 50.1 µM | [5] > 100 µM | [7] > 100 µM | [9] > 100 µM | [10] 26.4 µM | [11] > 100 µM | [12] > 100 µM | [13] > 100 µM | [14] > 100 µM | [15] 3.64 µM | [16] > 100 µM | [17] > 100 µM | [18] > 100 µM | [19] > 100 µM | [20] 69.8 µM | [21] > 100 µM | [22] > 100 µM | [23] > 100 µM | [24] > 100 µM | [25] > 100 µM | [26] 34 µM | [27] > 100 µM | [28] > 100 µM | [58] > 100 µM | [29] > 100 µM | [30] > 100 µM | [31] > 100 µM | [32] > 100 µM | [33] > 100 µM | [34] > 100 µM | [35] 83.6 µM | [36] > 100 µM | [37] > 100 µM | [38] > 100 µM | [39] > 100 µM | [40] > 100 µM | [41] > 100 µM | [42] > 100 µM | [43] > 100 µM | [44] > 100 µM | [45] > 100 µM | [46] 71.1 µM | [47] > 100 µM | [48] > 100 µM | [49] > 100 µM | [50] > 100 µM | [51] > 100 µM | [52] > 100 µM | [53] > 100 µM | [54] > 100 µM | [55] > 100 µM | [56] > 100 µM | [57] > 100 µM
> 100 µM: [6]

From ChEMBL document CHEMBL1201862, “PubChem BioAssay data set” (2004)
